#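 Following 48 hours of exposure in 96-well plates, responses at five concentrations were used to interpolate endpoints linearly. GI50 is the concentration that inhibits growth by half. Definition used: TGI = concentration required for complete inhibition of growth.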
# Legend:
# Test in all cases: inhibition of tumour cell growth, NCI panel, 48 h
# [1] = test system: HT29 colon
# [2] = test system: SF-268 CNS
# [3] = test system: OVCAR-8 ovarian
# [4] = test system: HL-60(TB) leukemia
# [5] = test system: SW-620 colon
# [6] = test system: SF-539 CNS
# [7] = test system: UACC-257 melanoma
# [8] = test system: HOP-92 NSCLC
# [9] = test system: HS 578T breast
# [10] = test system: T-47D breast
SMILES,TGI [1] [µM],TGI [2] [µM],TGI [3] [µM],TGI [4] [µM],TGI [5] [µM],TGI [6] [µM],TGI [7] [µM],TGI [8] [µM],GI50 [1] [µM],GI50 [2] [µM],GI50 [3] [µM],GI50 [4] [µM],GI50 [9] [µM],TGI [9] [µM],GI50 [5] [µM],GI50 [6] [µM],GI50 [7] [µM],GI50 [10] [µM],TGI [10] [µM],GI50 [8] [µM]
CCCCCCCCCCCCCCC1OC(=O)c2ccccc21 (stereo not given),> 100,> 100,> 100,40.7,> 100,> 100,> 100,–,–,–,–,–,–,–,–,–,–,–,–,–
O=C1NC(=O)C2C(=O)NC(=O)C1C2(c1ccccc1)c1ccc(Cl)cc1 (stereo not given),> 100,> 100,> 100,> 100,> 100,> 100,> 100,> 100,–,–,–,–,–,–,–,–,–,–,–,–
CN(C)CCNC(=O)c1cccc2nc3c(Cl)cccc3nc12,15.9,–,> 44.3,> 100,> 40.4,16.8,26.9,> 24.2,–,–,–,–,–,–,–,–,–,–,–,–
COC(=O)C(CC(=O)c1cc2c(cc1I)OCO2)Cc1cc(OC)c(OC)c(OC)c1I (stereo not given),> 100,> 100,> 100,> 100,> 100,> 100,> 100,> 100,–,–,–,–,–,–,–,–,–,–,–,–
CC1CCC[P+](Cc2ccccc2)(c2ccccc2)CC1 (stereo not given),–,> 100,> 100,37.8,> 100,> 100,–,–,–,–,–,–,–,–,–,–,–,–,–,–
COC(=O)c1c(OC)cccc1C(=O)O,> 100,> 100,> 100,> 100,> 100,> 100,> 100,–,–,–,–,–,–,–,–,–,–,–,–,–
COc1nc2c(cc1S(=O)(=O)c1ccccc1)CCc1c-2cnn1-c1ccccc1Cl,> 100,> 100,> 100,> 100,> 100,> 100,> 100,–,4.73,17,8.7,4.98,4.7,> 100,> 100,> 100,21.8,–,–,–
O=C1Oc2cc3c(c4cccc1c24)OCN(c1ccc(Cl)cc1)C3,> 100,> 100,> 100,> 55.5,> 55.3,23.9,> 100,49.1,–,–,–,–,–,–,–,–,–,–,–,–
CCOC(=O)CCCO,> 100,> 100,> 100,> 100,> 100,> 100,> 100,> 100,–,–,–,–,–,–,–,–,–,–,–,–
ClCc1ccccc1CSc1ncnc2nc[nH]c12,> 60,> 60,> 60,–,> 60,> 60,> 60,> 60,> 60,> 60,> 60,–,> 60,> 60,> 60,> 60,> 60,> 60,> 60,> 60
CCCCn1/c(=N/C(=S)N(C)C)ss/c1=N\C(=S)N(C)C,> 100,> 100,> 100,> 100,> 100,> 100,> 100,> 100,–,–,–,–,–,–,–,–,–,–,–,–
O=C(/C=C/c1cccs1)c1ccc(Cl)cc1,> 100,> 100,> 100,70.5,92.9,> 100,> 100,–,–,–,–,–,–,> 100,–,–,–,–,> 100,–
COc1ccc(N=Cc2cc(OC)c(OC)c(OC)c2)cc1,> 100,> 100,> 100,–,30,> 100,> 100,> 100,–,–,–,–,–,–,–,–,–,–,–,–
C#CC(C)(C)Oc1cc(O)c2c(=O)c3ccccc3n(C)c2c1,> 100,> 100,> 100,> 100,–,58.1,> 100,> 100,–,–,–,–,–,–,–,–,–,–,–,–
O=C1/C(=C/c2ccccc2)CN(C(=O)Oc2ccc(Cl)cc2)C/C1=C\c1ccccc1,2.97,8.77,3.6,4.5,2.77,5.92,4.33,42.3,–,–,–,–,–,–,–,–,–,–,–,–
CC(=O)OCCc1cccnc1/C=N/O,> 100,> 100,> 100,> 100,> 100,> 100,> 100,> 100,–,–,–,–,–,–,–,–,–,–,–,–
Cc1cc(C)nc(NS(=O)(=O)c2ccc(NC(=O)c3cccc4c(=O)c5ccccc5[nH]c34)cc2)n1,43.9,48.2,41.1,47.7,55.5,35.4,33.9,44,–,–,–,–,–,–,–,–,–,–,–,–
Clc1ccc(Cc2nc3cc4ccccc4cc3[nH]2)cc1,–,75.7,37.1,> 100,> 100,81.1,> 100,> 100,–,10.9,7.92,> 100,12.4,67.7,6.55,3.08,> 100,23.1,88.6,19.5
O=C(O)c1cc(S(=O)(=O)N=NC=C2c3ccccc3N(O)c3ccccc32)ccc1O,> 100,34.4,> 100,23.7,> 100,–,88.2,30.1,–,–,–,–,–,–,–,–,–,–,–,–
CN(C)S(=O)(=O)Nc1ccccn1,> 100,> 100,> 100,> 100,> 100,> 100,> 100,> 100,–,–,–,–,–,> 100,–,–,–,–,–,–
C[Si](C)(C)c1ccc(CC2(Cc3ccc([Si](C)(C)C)cc3)CCNC2)cc1,4.08,4.71,3.35,> 100,3.38,10.4,5.41,3.18,–,–,–,–,–,–,–,–,–,–,–,–
Clc1cccc(NC=Nc2ccc(-c3nc4ccccc4s3)cc2)c1,–,46.4,30.6,27.3,> 50,34.1,36.6,> 50,–,10.6,13.1,10.5,32.6,> 50,16.7,17.8,16.1,10.8,39,19.6
COc1cc2c(cc1OC)C1C=NC(C(=O)O)(C2)c2ccccc21 (stereo not given),> 100,> 100,> 100,> 100,> 100,> 100,> 100,> 100,–,–,–,–,–,–,–,–,–,–,–,–

# Source: PubChem BioAssay (NCI)
